Experimental data from article PMC8421423, “Cellular model system to dissect the isoform-selectivity of Akt inhibitors” (Nature Communications, 2021).
“And” between values parts separate entries of the source, which are not always exact repeats. Equal entries are not always repeated. Where two headings read alike, the source gives them in different places.

Assays:
Ba/F3^myr-Akt2 cells = experiment: CellTiter-Glo cell viability assay; conditions: for cell viability: CTG
Method: On day 0, cells were plated into white 384-well cell culture plates (Greiner Bio-One) using a Multidrop reagent dispenser (Thermo Fisher Scientific) at cell numbers that ensure linear and optimal luminescent signal intensity (Ba/F3myr-Akt1: 600 cells/well, Ba/F3myr-Akt2: 800 cells/well, Ba/F3myr-Akt3: 800 cells/well). […] Cell viability was analyzed on day 4 using the CellTiter-Glo Assay (Promega) as per the manufacturer’s instructions. […] All experimental points were measured in duplicates for each plate and were replicated in at least three plates.

parental Ba/F3 cells = experiment: CellTiter-Glo cell viability assay; format: cell-based, murine; conditions: for cell viability: CTG, parental
[1] = CellTiter-Glo cell viability assay; format: cell-based, murine; conditions: mouse, parental Ba/F3 cells, CTG, parental, single replicates
Akt1 [2] = biological target: T1, Akt1 (Homo sapiens, UniProt P31749); experiment: STK HTRF KinEASE activity-based assay (IC50)
Method: The biochemical half maximal inhibitory concentrations (IC50) were determined with the STK HTRF KinEASE assay (Cisbio) according to the manufactor’s instructions. Briefly: 5 µL Kinase solution and 2.5 µL inhibitor solution (8% DMSO in HTRF buffer) were incubated for 1 h before the reaction was started by addition of 2.5 µL starting solution containing ATP and substrate peptide. […] After reaction completion (Akt1: 60 min, Akt2: 20 min, Akt3: 15 min), 10 µL of stop solution were added. […] The quotient of both intensities were recorded at eight different inhibitor concentrations and data fit to a Hill 4-parameter equation with Quattro software suite (Quattro Research GmbH, Martinsried, Germany). Each reaction was performed in duplicates and at least three independent determinations of each IC50 were made.

Akt3 [3] = biological target: T2, Akt3 (Homo sapiens, UniProt Q9Y243); experiment: STK HTRF KinEASE activity-based assay (IC50)
Akt3 [4] = biological target: T2, Akt3; experiment: Cellular thermal shift assay (CETSA) in PANC1 cells; format: cell-based; set-up: purchased ProQinase #1578-0000-1
Method: (§1) Cells were seeded into 100 mm tissue culture plates (Sarstedt) (PANC1: 10^6 cells). After 24 h incubation, cells were treated with 1 µM of inhibitors or DMSO and were incubated for 4.5 h. Cells were washed twice with ice-cold PBS and then suspended in 1 mL PBS. Cells were collected and separated into equal volumes (100 µL). The aliquots were treated individually with different temperatures for 3 min, followed by a 3 min incubation at room temperature. Cell lysis was initiated by adding 100 µL RIPA buffer and 2 freeze-thaw cycles in liquid nitrogen. The lysates were centrifuged at 21,130×g for 20 min at room temperature. The supernatants were transferred into fresh, pre-cooled microcentrifuge tubes, and analyzed by western blot analysis as described above.

Akt1 [5] = biological target: T1, Akt1; experiment: as above; format: cell-based; set-up: purchased ProQinase #1379-0000-2
Method: as §1

Akt2 [6] = biological target: T3, Akt2 (Homo sapiens, UniProt P31751); experiment: as above; format: cell-based; set-up: purchased Thermo Fisher Scientific #PV3184
Method: as §1

Akt2 [7] = biological target: T3, Akt2; experiment: STK HTRF KinEASE activity-based assay (IC50)
Ba/F3^myr-Akt1 cells = experiment: CellTiter-Glo cell viability assay; conditions: for cell viability: CTG
pAkt2 = experiment: Western blot analysis, PANC1 cells; format: cell-based, human; conditions: PANC1, 24-h treatment
Method: Cells were seeded into six-well tissue culture plates (Sarstedt) (BaF3 myr-Akt1/2/3: 10^6 cells/well, PANC1: 250.000 cells/well). […] Cell lysis was initiated by addition of 100 μL RIPA buffer (Cell Signaling Technology) per well supplemented with phosphatase and protease inhibitor cocktails (Sigma) followed by incubation on ice for 20 min. Cells were then harvested by scraping (PANC1) or centrifugation (BaF3). Whole cell lysates were cleared by centrifugation at 14,000×g/4 °C for 10 min and transferred into fresh, pre-cooled microcentrifuge tubes. Protein concentrations were determined using the Pierce BCA protein assay (Thermo) as per manufacturer’s instructions. Equal amounts of protein were separated by SDS-PAGE and transferred to Immobilon-FL PVDF membranes (Merck Millipore) using Pierce™ 1-step transfer buffer (Thermo) and the Pierce™ Power Blotter (Thermo). Membranes were washed for 5 min with ddH2O, blocked with Intercept®Blocking Buffer TBS (Li-Cor) for 1 h at room temperature, and then incubated with primary antibodies diluted in Intercept®Blocking Buffer TBS overnight at 4 °C with gentle agitation. On the next day, the membranes were washed three times with TBS-T (50 mM Tris, 150 mM NaCl, 0.05 % Tween 20, pH 7.4) for 5 min before being incubated with secondary antibodies diluted in Intercept®Blocking Buffer TBS for 1 h at room temperature with gentle agitation. Finally, the membranes were washed three times for 5 min with TBS-T and then scanned using an Odyssey®CLx imaging system (Li-Cor).

Ba/F3^myr-Akt3 cells = experiment: CellTiter-Glo cell viability assay; conditions: for cell viability: CTG
[8] = CETSA PANC1, 1 µM, temperature 39.9
[9] = CETSA PANC1, 1 µM, temperature 43.5
[10] = CETSA PANC1, 1 µM, temperature 48.4
[11] = CETSA PANC1, 1 µM, temperature 53.8
[12] = CETSA PANC1, 1 µM, temperature 58.1
[13] = CETSA PANC1, 1 µM, temperature 61.4
[14] = CETSA PANC1, 1 µM, temperature 65.6
[15] = CETSA PANC1, 1 µM, temperature 70.9
[16] = CETSA PANC1, 1 µM, temperature 76
[17] = CETSA PANC1, 1 µM, temperature 79.9
[18] = CETSA PANC1, 2.5 µM, temperature 39.9
[19] = CETSA PANC1, 2.5 µM, temperature 43.5
[20] = CETSA PANC1, 2.5 µM, temperature 48.4
[21] = CETSA PANC1, 2.5 µM, temperature 53.8
[22] = CETSA PANC1, 2.5 µM, temperature 58.1
[23] = CETSA PANC1, 2.5 µM, temperature 61.4
[24] = CETSA PANC1, 2.5 µM, temperature 65.6
[25] = CETSA PANC1, 2.5 µM, temperature 70.9
[26] = CETSA PANC1, 2.5 µM, temperature 76
[27] = CETSA PANC1, 2.5 µM, temperature 79.9
[28] = cell viability assay Ba/F3 myr-Akt cells, log units

T2 sequence (Q9Y243 whole entry): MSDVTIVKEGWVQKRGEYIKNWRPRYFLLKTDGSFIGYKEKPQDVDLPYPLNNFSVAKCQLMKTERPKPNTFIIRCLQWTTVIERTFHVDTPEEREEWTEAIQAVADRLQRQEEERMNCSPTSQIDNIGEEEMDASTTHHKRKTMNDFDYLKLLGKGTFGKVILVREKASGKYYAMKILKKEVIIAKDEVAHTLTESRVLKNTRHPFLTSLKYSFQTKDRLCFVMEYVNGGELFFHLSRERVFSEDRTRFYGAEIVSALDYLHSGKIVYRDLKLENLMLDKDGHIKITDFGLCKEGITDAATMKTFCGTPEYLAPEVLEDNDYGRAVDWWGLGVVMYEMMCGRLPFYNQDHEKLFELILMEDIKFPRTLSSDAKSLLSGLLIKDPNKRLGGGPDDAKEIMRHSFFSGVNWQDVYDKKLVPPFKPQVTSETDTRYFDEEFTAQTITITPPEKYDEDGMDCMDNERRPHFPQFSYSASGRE
T3 sequence (P31751 whole entry): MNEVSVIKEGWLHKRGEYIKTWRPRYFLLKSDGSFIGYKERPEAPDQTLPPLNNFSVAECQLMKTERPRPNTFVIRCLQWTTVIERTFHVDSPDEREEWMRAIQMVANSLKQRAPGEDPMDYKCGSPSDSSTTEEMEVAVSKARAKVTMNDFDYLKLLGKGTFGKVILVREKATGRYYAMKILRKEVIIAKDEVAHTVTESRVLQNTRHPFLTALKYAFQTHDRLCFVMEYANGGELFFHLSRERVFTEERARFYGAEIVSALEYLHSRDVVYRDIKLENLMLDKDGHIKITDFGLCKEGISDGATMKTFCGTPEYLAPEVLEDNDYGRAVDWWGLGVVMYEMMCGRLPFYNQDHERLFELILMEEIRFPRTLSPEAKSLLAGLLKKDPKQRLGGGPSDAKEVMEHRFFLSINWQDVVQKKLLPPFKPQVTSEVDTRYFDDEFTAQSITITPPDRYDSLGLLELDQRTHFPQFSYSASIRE
T1 sequence (P31749 whole entry): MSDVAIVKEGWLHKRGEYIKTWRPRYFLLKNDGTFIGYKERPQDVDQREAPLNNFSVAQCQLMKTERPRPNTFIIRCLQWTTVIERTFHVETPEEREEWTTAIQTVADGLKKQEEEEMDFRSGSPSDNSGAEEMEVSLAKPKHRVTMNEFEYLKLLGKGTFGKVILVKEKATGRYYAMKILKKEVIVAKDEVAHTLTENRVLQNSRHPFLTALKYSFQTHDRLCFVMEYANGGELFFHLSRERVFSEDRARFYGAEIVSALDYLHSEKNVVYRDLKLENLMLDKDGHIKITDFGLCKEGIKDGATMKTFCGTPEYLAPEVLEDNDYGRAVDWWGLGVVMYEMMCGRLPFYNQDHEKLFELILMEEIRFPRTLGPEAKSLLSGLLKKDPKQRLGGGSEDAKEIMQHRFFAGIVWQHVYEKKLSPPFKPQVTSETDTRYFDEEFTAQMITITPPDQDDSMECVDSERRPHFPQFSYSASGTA

## C=CC(=O)Nc1ccc2[nH]c(=O)n(C3CCN(Cc4ccc(-c5ncc(Cc6ccc(N)nc6)cc5-c5ccccc5)cc4)CC3)c2c1 [compound 20]
Ba/F3^myr-Akt2 cells; myr-Akt2, 0.1 nM, single replicates, 0.0001 µM
  cell viability: 92.3 % of control and 98.1 % of control
Ba/F3^myr-Akt2 cells; myr-Akt2, 5000 nM, single replicates, 5 µM
  cell viability: 26.9 % of control and 44.2 % of control
Ba/F3^myr-Akt2 cells; Mus musculus, read-out: CTG BaF3myr-Akt2, Mean, mean of replicates
  EC50: 4090 nM
Ba/F3^myr-Akt2 cells; Mus musculus, read-out: CTG BaF3myr-Akt2, individual determinations, single replicates
  EC50: 2950 nM
Ba/F3^myr-Akt2 cells; Mus musculus, read-out: cell viability, CTG, myr-Akt2, 0.1 nM, single replicates
  viability at 0.0001 µM: 105%
Ba/F3^myr-Akt2 cells; Mus musculus, read-out: cell viability, CTG, myr-Akt2, 5000 nM, single replicates
  viability at 5 µM: 25.6%
Ba/F3^myr-Akt2 cells; read-out: CTG BaF3myr-Akt2, individual determinations, single replicates
  EC50: 4700 nM and 4620 nM
Parental Ba/F3 cells; 0.1 nM, single replicates, 0.0001 µM
  cell viability: 98.4 % of control and 93.0 % of control
Parental Ba/F3 cells; 5000 nM, single replicates, 5 µM
  cell viability: 87.1 % of control and 85.4 % of control
Parental Ba/F3 cells; Mus musculus, BaF3, parental cells, mean of replicates, read-out: CTG BaF3, Mean
  EC50: 12100 nM
Parental Ba/F3 cells; Mus musculus, BaF3, parental cells, single replicates, read-out: CTG BaF3, individual determinations
  EC50: 9750 nM
Parental Ba/F3 cells; parental cells, single replicates, read-out: CTG BaF3, individual determinations
  EC50: 9720 nM and 18600 nM
[1]; 0.1 nM, read-out: cell viability
  viability at 3 days, 0.0001 µM: 104%
[1]; 5000 nM
  viability at 3 days, 5 µM: 83.7%
Akt1 [2]; HTRF IC50 Akt1, Mean, mean of replicates
  IC50: 1630 nM
Akt1 [2]; HTRF IC50 Akt1, individual determinations, single replicates
  IC50: 1630 nM and 1810 nM and 1450 nM
Akt1 [2]; IC50 Akt1, HTRF, ATP at KM, 1 h preincubation
  IC50: 1630 ± 148 nM
Akt1 [2]; biochemical activity based assay, log units
  Log ratio IC50 [Akt] / IC50 [Akt], Akt1 / Akt2: 0.97
Akt3 [3]; HTRF IC50 Akt3, individual determinations, single replicates
  IC50: 144 nM and 176 nM and 240 nM and 188 nM
Akt3 [3]; IC50 Akt3, HTRF, ATP at KM, 1 h preincubation
  IC50: 187 ± 40 nM
Akt3 [4]; [8]
  tAkt3 %: 100.00%
Akt3 [4]; [9]
  tAkt3 %: 71.95%
Akt3 [4]; [10]
  tAkt3 %: 46.73%
Akt3 [4]; [11]
  tAkt3 %: 49.56%
Akt3 [4]; [12]
  tAkt3 %: 48.14%
Akt3 [4]; [13]
  tAkt3 %: 35.11%
Akt3 [4]; [14]
  tAkt3 %: 25.19%
Akt3 [4]; [15]
  tAkt3 %: 2.44%
Akt3 [4]; [16]
  tAkt3 %: 2.83%
Akt3 [4]; [17]
  tAkt3 %: 0.00%
Akt3 [4]; [18]
  tAkt3 %: 100.00%
Akt3 [4]; [19]
  tAkt3 %: 103.86%
Akt3 [4]; [20]
  tAkt3 %: 83.57%
Akt3 [4]; [21]
  tAkt3 %: 72.46%
Akt3 [4]; [22]
  tAkt3 %: 73.91%
Akt3 [4]; [23]
  tAkt3 %: 50.24%
Akt3 [4]; [24]
  tAkt3 %: 22.85%
Akt3 [4]; [25]
  tAkt3 %: 8.02%
Akt3 [4]; [26]
  tAkt3 %: 2.05%
Akt3 [4]; [27]
  tAkt3 %: 0.00%
Akt3 [4]; PANC1, 1 µM
  thermal stabilization of Akt3 (CETSA, in words): slight stabilization of Akt3
Akt3 [4]; PANC1, 2.5 µM
  thermal stabilization of Akt3 (CETSA, in words): significant stabilization of Akt2 and Akt3
Akt1 [5]; [8]
  tAkt1 %: 100.00%
Akt1 [5]; [9]
  tAkt1 %: 45.86%
Akt1 [5]; [10]
  tAkt1 %: 43.98%
Akt1 [5]; [11]
  tAkt1 %: 34.21%
Akt1 [5]; [12]
  tAkt1 %: 23.05%
Akt1 [5]; [13]
  tAkt1 %: 19.70%
Akt1 [5]; [14]
  tAkt1 %: 13.05%
Akt1 [5]; [15]
  tAkt1 %: 3.12%
Akt1 [5]; [16]
  tAkt1 %: 1.54%
Akt1 [5]; [17]
  tAkt1 %: 0.00%
Akt1 [5]; [18]
  tAkt1 %: 100.00%
Akt1 [5]; [19]
  tAkt1 %: 55.35%
Akt1 [5]; [20]
  tAkt1 %: 36.29%
Akt1 [5]; [21]
  tAkt1 %: 40.13%
Akt1 [5]; [22]
  tAkt1 %: 29.31%
Akt1 [5]; [23]
  tAkt1 %: 31.38%
Akt1 [5]; [24]
  tAkt1 %: 3.90%
Akt1 [5]; [25]
  tAkt1 %: -1.89%
Akt1 [5]; [26]
  tAkt1 %: 0.94%
Akt1 [5]; [27]
  tAkt1 %: 0.00%
Akt2 [6]; [8]
  tAkt2 %: 100.00%
Akt2 [6]; [9]
  tAkt2 %: 81.90%
Akt2 [6]; [10]
  tAkt2 %: 58.55%
Akt2 [6]; [11]
  tAkt2 %: 58.55%
Akt2 [6]; [12]
  tAkt2 %: 42.44%
Akt2 [6]; [13]
  tAkt2 %: 52.13%
Akt2 [6]; [14]
  tAkt2 %: 35.55%
Akt2 [6]; [15]
  tAkt2 %: 6.07%
Akt2 [6]; [16]
  tAkt2 %: 11.50%
Akt2 [6]; [17]
  tAkt2 %: 0.00%
Akt2 [6]; [18]
  tAkt2 %: 100.00%
Akt2 [6]; [19]
  tAkt2 %: 97.05%
Akt2 [6]; [20]
  tAkt2 %: 85.02%
Akt2 [6]; [21]
  tAkt2 %: 75.94%
Akt2 [6]; [22]
  tAkt2 %: 76.89%
Akt2 [6]; [23]
  tAkt2 %: 28.89%
Akt2 [6]; [24]
  tAkt2 %: 35.73%
Akt2 [6]; [25]
  tAkt2 %: 24.29%
Akt2 [6]; [26]
  tAkt2 %: 12.62%
Akt2 [6]; [27]
  tAkt2 %: 0.00%
Akt2 [6]; PANC1, 2.5 µM
  thermal stabilization of Akt2 (CETSA, in words): significant stabilization of Akt2 and Akt3
Akt2 [7]; HTRF IC50 Akt2, Mean, mean of replicates
  IC50: 175 nM
Akt2 [7]; HTRF IC50 Akt2, individual determinations, single replicates
  IC50: 177 nM and 317 nM and 174 nM
Akt2 [7]; IC50 Akt2, HTRF, ATP at KM, 1 h preincubation
  IC50: 175 ± 2 nM
Ba/F3^myr-Akt1 cells; myr-Akt1, 0.1 nM, single replicates, 0.0001 µM
  cell viability: 108.0 % of control and 90.0 % of control
Ba/F3^myr-Akt1 cells; myr-Akt1, 5000 nM, single replicates, 5 µM
  cell viability: 85.6 % of control and 91.8 % of control
Ba/F3^myr-Akt1 cells; Mus musculus, read-out: CTG BaF3myr-Akt1, Mean, mean of replicates
  EC50: 9480 nM
Ba/F3^myr-Akt1 cells; Mus musculus, read-out: CTG BaF3myr-Akt1, individual determinations, single replicates
  EC50: 10000 nM
Ba/F3^myr-Akt1 cells; Mus musculus, read-out: cell viability, CTG, myr-Akt1, 0.1 nM, single replicates
  viability at 0.0001 µM: 102%
Ba/F3^myr-Akt1 cells; Mus musculus, read-out: cell viability, CTG, myr-Akt1, 5000 nM, single replicates
  viability at 5 µM: 73.6%
Ba/F3^myr-Akt1 cells; [28]
  Log ratio EC50 [Akt] / EC50 [Akt], Akt1 / Akt2: 0.27
Ba/F3^myr-Akt1 cells; read-out: CTG BaF3myr-Akt1, individual determinations, single replicates
  EC50: 9200 nM and 9240 nM
pAkt2
  pAkt2 level (immunoblot): moderate downregulation of pAkt2
Ba/F3^myr-Akt3 cells; myr-Akt3, 0.1 nM, single replicates, 0.0001 µM
  cell viability: 100.1 % of control and 113.6 % of control and 88.4 % of control
Ba/F3^myr-Akt3 cells; myr-Akt3, 5000 nM, single replicates, 5 µM
  cell viability: 49.5 % of control and 56.5 % of control and 73.0 % of control
Ba/F3^myr-Akt3 cells; Mus musculus, read-out: CTG BaF3myr-Akt3, Mean, mean of replicates
  EC50: 5050 nM
Ba/F3^myr-Akt3 cells; Mus musculus, read-out: CTG BaF3myr-Akt3, individual determinations, single replicates
  EC50: 5100 nM
Ba/F3^myr-Akt3 cells; [28]
  Log ratio EC50 [Akt] / EC50 [Akt], Akt3 / Akt2: -0.09
Ba/F3^myr-Akt3 cells; read-out: CTG BaF3myr-Akt3, individual determinations, single replicates
  EC50: 4070 nM and 5520 nM
